The test system of one assay is Enterococcus faecalis. The experiment in a line: microbe, parasite or virus in culture. It counts as functional. As to conditions: ATCC 51299.
The next assay deals with Escherichia coli. The experiment in a line: Antibacterial activity against Escherichia coli ATCC 25922 by XTT assay. It counts as functional.
Assay [1] deals with Staphylococcus aureus. The experiment in a line: Antibacterial activity against methicillin-resistant Staphylococcus aureus ATCC 43300 by XTT assay.
Assay [2] deals with Staphylococcus aureus. The experiment in a line: Antibacterial activity against methicillin-resistant Staphylococcus aureus ATCC 33591 by XTT assay.
The next assay concerns Enterococcus faecium. The experiment in a line: Antibacterial activity against vancomycin-susceptible Enterococcus faecium ATCC 35667 by XTT assay.
Assay [3] has as its system Staphylococcus aureus. The experiment in a line: Antibacterial activity against methicillin-susceptible Staphylococcus aureus ATCC 25923 by XTT assay.
The subject of assay [4] is Staphylococcus aureus. The experiment in a line: Antibacterial activity against methicillin-susceptible Staphylococcus aureus ATCC 29213 by XTT assay.

Converted amounts (≈) assume the structure as drawn.

Description for Enterococcus faecalis: Antibacterial activity against vancomycin-susceptible Enterococcus faecalis ATCC 51299 by XTT assay

Take `CCCCCCC(C)/C=C(\C)C(=O)O[C@@]1(C)C(=O)C=C2C=C(c3c(C)cccc3O)OC=C2C1=O` (stereo partly specified): the MIC in the assay on Enterococcus faecalis was 3.13 µg/mL (≈ 6.54 µM); against Escherichia coli it was > 50 µg/mL; against Staphylococcus aureus [1] it was 3.13 µg/mL (≈ 6.54 µM); with Staphylococcus aureus [2], 3.13 µg/mL (≈ 6.54 µM); with Enterococcus faecium, 3.13 µg/mL (≈ 6.54 µM); against Staphylococcus aureus [3] it was 3.13 µg/mL (≈ 6.54 µM). Moreover, the MIC against Staphylococcus aureus [4] was found to be 3.13 µg/mL (≈ 6.54 µM).

As to `Cc1cccc(O)c1C1=CC2=C(Cl)C(=O)[C@@](C)(O)C(=O)C2=CO1`, the MIC against Enterococcus faecalis was 50 µg/mL (≈ 150 µM); against Escherichia coli it was > 50 µg/mL; in the assay on Staphylococcus aureus [1] it was > 50 µg/mL; against Staphylococcus aureus [2] it was 50 µg/mL (≈ 150 µM); against Enterococcus faecium, 50 µg/mL (≈ 150 µM); with Staphylococcus aureus [3] it was 25 µg/mL (≈ 75.1 µM). For the same compound, the MIC in the assay with Staphylococcus aureus [4] is > 50 µg/mL.

In the case of `Cc1cccc(O)c1C1=CC2=CC(=O)[C@](C)(O)C(=O)C2=CO1`, the MIC against Enterococcus faecalis, with Escherichia coli, in the assay with Staphylococcus aureus [1], with Staphylococcus aureus [2], in the assay with Enterococcus faecium and against Staphylococcus aureus [3] was > 50 µg/mL throughout. Further, the MIC against Staphylococcus aureus [4] is > 50 µg/mL.

As for `CCCCCCC(C)/C=C(\C)C(=O)O[C@@]1(C)C(=O)C=C2C=C(C3=C(C)C[C@@H](O)CC3=O)OC=C2C1=O` (stereo partly specified), the MIC against Enterococcus faecalis, with Escherichia coli, with Staphylococcus aureus [1], in the assay with Staphylococcus aureus [2], against Enterococcus faecium and with Staphylococcus aureus [3] was > 50 µg/mL throughout. Moreover, in the assay with Staphylococcus aureus [4], the MIC was > 50 µg/mL.

As for `CCCCCCC(C)/C=C(\C)C(=O)O[C@@]1(C)C(=O)C2=COC(C3=C(C)CC(O)CC3=O)=CC2=C(Cl)C1=O` (stereo partly specified), the MIC was 12.5 µg/mL (≈ 23.5 µM) with Enterococcus faecalis; > 50 µg/mL against Escherichia coli; 6.25 µg/mL (≈ 11.8 µM) against Staphylococcus aureus [1]; 6.25 µg/mL (≈ 11.8 µM) with Staphylococcus aureus [2]; 12.5 µg/mL (≈ 23.5 µM) with Enterococcus faecium; 12.5 µg/mL (≈ 23.5 µM) in the assay with Staphylococcus aureus [3]. Moreover, the MIC in the assay on Staphylococcus aureus [4] was 6.25 µg/mL (≈ 11.8 µM).

On to `Cc1onc(-c2ccccc2)c1C(=O)N[C@@H]1C(=O)N2[C@@H]1SC(C)(C)[C@@H]2C(=O)[O-].[Na+]`, for which the MIC against Enterococcus faecalis was 50 µg/mL; in the assay on Escherichia coli, > 100 µg/mL; in the assay on Staphylococcus aureus [1] it was > 100 µg/mL; against Staphylococcus aureus [2] it was > 100 µg/mL; in the assay on Enterococcus faecium, > 100 µg/mL; against Staphylococcus aureus [3], 0.78 µg/mL. In addition, in the assay with Staphylococcus aureus [4], the MIC was found to be 3.13 µg/mL.

With `CCCCCCC(C)/C=C(\C)C(=O)O[C@@]1(C)C(=O)C2=COC(c3c(C)cccc3O)=CC2=C(Cl)C1=O` (stereo partly specified), the MIC in the assay with Enterococcus faecalis was 6.25 µg/mL (≈ 12.2 µM); against Escherichia coli it was > 50 µg/mL; in the assay with Staphylococcus aureus [1], 6.25 µg/mL (≈ 12.2 µM); in the assay with Staphylococcus aureus [2], 6.25 µg/mL (≈ 12.2 µM); against Enterococcus faecium, 12.5 µg/mL (≈ 24.4 µM); in the assay with Staphylococcus aureus [3], 12.5 µg/mL (≈ 24.4 µM). The MIC against Staphylococcus aureus [4] was 3.13 µg/mL (≈ 6.1 µM).

As for `CN[C@H](CC(C)C)C(=O)N[C@H]1C(=O)N[C@@H](CC(N)=O)C(=O)N[C@H]2C(=O)N[C@H]3C(=O)N[C@H](C(=O)N[C@H](C(=O)O)c4cc(O)cc(O)c4-c4cc3ccc4O)[C@H](O)c3ccc(c(Cl)c3)Oc3cc2cc(c3O[C@@H]2O[C@H](CO)[C@@H](O)[C@H](O)[C@H]2O[C@H]2C[C@](C)(N)[C@H](O)[C@H](C)O2)Oc2ccc(cc2Cl)[C@H]1O.Cl` [VANCOMYCIN HYDROCHLORIDE], the MIC was 6.25 µg/mL in the assay with Enterococcus faecalis; > 100 µg/mL against Escherichia coli; 0.39 µg/mL in the assay with Staphylococcus aureus [1]; 0.78 µg/mL with Staphylococcus aureus [2]; 0.39 µg/mL in the assay on Enterococcus faecium; 1.56 µg/mL with Staphylococcus aureus [3]. For the same compound, the MIC against Staphylococcus aureus [4] was 0.39 µg/mL.

For the origin of these results see ChEMBL document CHEMBL4177529, “Penicilones A-D, Anti-MRSA Azaphilones from the Marine-Derived Fungus Penicillium janthinellum HK1-6” (2017).
